In ChEMBL document CHEMBL3046556, “Microwave-assisted synthesis and antimicrobial screening of new imidazole derivatives bearing 4-thiazolidinone nucleus” (2013):
Values after ≈ are worked out from the molar mass of the structure shown. Active and inactive are the calls of the source. No cut-off for these calls is given here.

Assays:
Streptococcus pyogenes [1] = test: Antibacterial activity against Streptococcus pyogenes MTCC 442 assessed as growth inhibition after 24 hr by NCCLS broth dilution method; format: functional; settings: MTCC 442, 24 h
Staphylococcus aureus [2] = test: Antibacterial activity against Staphylococcus aureus MTCC 96 assessed as growth inhibition after 24 hr by NCCLS broth dilution method; format: functional; settings: MTCC 96, 24 h
Escherichia coli [3] = test: Antibacterial activity against Escherichia coli MTCC 443 assessed as growth inhibition at 12.5 to 1000 ug/mL after 24 hr by NCCLS broth dilution method; format: functional, organism-based
Aspergillus clavatus [4] = test: Antifungal activity against Aspergillus clavatus MTCC 1323 assessed as growth inhibition at 12.5 to 1000 ug/mL after 48 hr by broth dilution method; format: functional, organism-based
Aspergillus niger [5] = test: Antifungal activity against Aspergillus niger MTCC 282 assessed as growth inhibition at 12.5 to 1000 ug/mL after 48 hr by broth dilution method; format: functional, organism-based
Candida albicans [6] = test: Antifungal activity against Candida albicans MTCC 227 assessed as growth inhibition at 12.5 to 1000 ug/mL after 48 hr by broth dilution method; format: functional, organism-based
Pseudomonas aeruginosa [7] = test: Antibacterial activity against Pseudomonas aeruginosa MTCC 1688 assessed as growth inhibition after 24 hr by NCCLS broth dilution method; format: functional; settings: MTCC 1688, 24 h
Aspergillus clavatus [8] = test: Antifungal activity against Aspergillus clavatus MTCC 1323 assessed as growth inhibition after 48 hr by broth dilution method; format: functional; settings: MTCC 1323, 48 h
Aspergillus niger [9] = test: Antifungal activity against Aspergillus niger MTCC 282 assessed as growth inhibition after 48 hr by broth dilution method; format: functional; settings: MTCC 282, 48 h
Candida albicans [10] = test: Antifungal activity against Candida albicans MTCC 227 assessed as growth inhibition after 48 hr by broth dilution method; format: functional; settings: MTCC 227, 48 h
Escherichia coli [11] = test: Antibacterial activity against Escherichia coli MTCC 443 assessed as growth inhibition after 24 hr by NCCLS broth dilution method; format: functional; settings: MTCC 443, 24 h
Streptococcus pyogenes [12] = test: Antibacterial activity against Streptococcus pyogenes MTCC 442 assessed as growth inhibition at 12.5 to 1000 ug/mL after 24 hr by NCCLS broth dilution method; format: functional, organism-based
Pseudomonas aeruginosa [13] = test: Antibacterial activity against Pseudomonas aeruginosa MTCC 1688 assessed as growth inhibition at 12.5 to 1000 ug/mL after 24 hr by NCCLS broth dilution method; format: functional, organism-based
Staphylococcus aureus [14] = test: Antibacterial activity against Staphylococcus aureus MTCC 96 assessed as growth inhibition at 12.5 to 1000 ug/mL after 24 hr by NCCLS broth dilution method; format: functional, organism-based

SMILES | MIC (Streptococcus pyogenes [1]) [µg/mL] | MIC (Staphylococcus aureus [2]) [µg/mL] | growth inhibition (GI) (Escherichia coli [3]) | growth inhibition (GI) (Aspergillus clavatus [4]) | growth inhibition (GI) (Aspergillus niger [5]) | growth inhibition (GI) (Candida albicans [6]) | MIC (Pseudomonas aeruginosa [7]) [µg/mL] | MIC (Aspergillus clavatus [8]) [µg/mL] | MIC (Aspergillus niger [9]) [µg/mL] | MIC (Candida albicans [10]) [µg/mL] | MIC (Escherichia coli [11]) [µg/mL] | growth inhibition (GI) (Streptococcus pyogenes [12]) | growth inhibition (GI) (Pseudomonas aeruginosa [13]) | growth inhibition (GI) (Staphylococcus aureus [14])
CC1=N/C(=C/c2ccc(O)cc2)C(=O)N1c1ccc(/C(C)=N/NC(N)=S)cc1 | 500 (≈ 1270 µM) | 500 (≈ 1270 µM) | inactive | Active | Active | Active | 500 (≈ 1270 µM) | – | – | – | – | – | – | –
CC1=N/C(=C\c2ccccc2[N+](=O)[O-])C(=O)N1c1ccc(/C(C)=N/N=C2/NC(=O)CS2)cc1 | 100 (≈ 216 µM) | 250 (≈ 541 µM) | – | – | – | – | 500 (≈ 1080 µM) | 500 (≈ 1080 µM) | 500 (≈ 1080 µM) | 500 (≈ 1080 µM) | 100 (≈ 216 µM) | – | – | –
CC(=O)c1ccc(N2C(=O)/C(=C\c3ccc(C)cc3)N=C2C)cc1 | – | 1000 (≈ 3140 µM) | – | inactive | – | inactive | – | 250 (≈ 785 µM) | 250 (≈ 785 µM) | – | 1000 (≈ 3140 µM) | inactive | inactive | –
COc1ccccc1/C=C1\N=C(C)N(c2ccc(/C(C)=N/N=C3/NC(=O)CS3)cc2)C1=O | 100 (≈ 223 µM) | 50 (≈ 112 µM) | – | – | – | – | 50 (≈ 112 µM) | 25 (≈ 55.9 µM) | 100 (≈ 223 µM) | 500 (≈ 1120 µM) | 250 (≈ 559 µM) | – | – | –
CC1=N/C(=C\c2ccccc2F)C(=O)N1c1ccc(/C(C)=N/N=C2/NC(=O)CS2)cc1 | 100 (≈ 230 µM) | 500 (≈ 1150 µM) | – | – | – | – | 500 (≈ 1150 µM) | 500 (≈ 1150 µM) | 500 (≈ 1150 µM) | 1000 (≈ 2300 µM) | 250 (≈ 574 µM) | – | – | –
COc1ccc(/C=C2/N=C(C)N(c3ccc(/C(C)=N/NC(N)=S)cc3)C2=O)cc1 | 500 (≈ 1230 µM) | 500 (≈ 1230 µM) | inactive | Active | Active | Active | 500 (≈ 1230 µM) | – | – | – | – | – | – | –
CC1=N/C(=C/c2ccc(C)cc2)C(=O)N1c1ccc(/C(C)=N/NC(N)=S)cc1 | 500 (≈ 1280 µM) | 500 (≈ 1280 µM) | inactive | Active | Active | Active | 500 (≈ 1280 µM) | – | – | – | – | – | – | –
CC1=N/C(=C\c2ccc(C)cc2)C(=O)N1c1ccc(/C(C)=N/N=C2/NC(=O)CS2)cc1 | 25 (≈ 57.9 µM) | 12.5 (≈ 29 µM) | – | – | – | – | 250 (≈ 579 µM) | 50 (≈ 116 µM) | 12.5 (≈ 29 µM) | 250 (≈ 579 µM) | 50 (≈ 116 µM) | – | – | –
CC1=N/C(=C/c2ccccc2O)C(=O)N1c1ccc(/C(C)=N/NC(N)=S)cc1 | 500 (≈ 1270 µM) | 500 (≈ 1270 µM) | inactive | Active | Active | Active | 500 (≈ 1270 µM) | – | – | – | – | – | – | –
CC1=N/C(=C\c2ccccc2)C(=O)N1c1ccc(/C(C)=N/N=C2/NC(=O)CS2)cc1 | 1000 (≈ 2400 µM) | 250 (≈ 599 µM) | – | – | – | – | 500 (≈ 1200 µM) | 500 (≈ 1200 µM) | 500 (≈ 1200 µM) | 1000 (≈ 2400 µM) | 1000 (≈ 2400 µM) | – | – | –
CC1=N/C(=C\c2cccc(O)c2)C(=O)N1c1ccc(/C(C)=N/N=C2/NC(=O)CS2)cc1 | 250 (≈ 577 µM) | 100 (≈ 231 µM) | – | – | – | – | 250 (≈ 577 µM) | 250 (≈ 577 µM) | 250 (≈ 577 µM) | 500 (≈ 1150 µM) | 250 (≈ 577 µM) | – | – | –
COc1ccccc1/C=C1/N=C(C)N(c2ccc(C(C)=O)cc2)C1=O | – | – | inactive | inactive | – | inactive | – | 250 (≈ 748 µM) | 250 (≈ 748 µM) | – | – | inactive | inactive | inactive
CC1=N/C(=C\c2ccccc2Cl)C(=O)N1c1ccc(/C(C)=N/N=C2/NC(=O)CS2)cc1 | 250 (≈ 553 µM) | 500 (≈ 1110 µM) | – | – | – | – | 100 (≈ 221 µM) | 1000 (≈ 2210 µM) | 1000 (≈ 2210 µM) | 1000 (≈ 2210 µM) | 500 (≈ 1110 µM) | – | – | –
CC1(C)S[C@@H]2[C@H](NC(=O)[C@H](N)c3ccccc3)C(=O)N2[C@H]1C(=O)O [AMPICILLIN] | 100 (≈ 286 µM) | 100 (≈ 286 µM) | – | – | – | – | 100 (≈ 286 µM) | – | – | – | 250 (≈ 715 µM) | – | – | –
CC1=N/C(=C\c2ccc(Cl)cc2)C(=O)N1c1ccc(/C(C)=N/N=C2/NC(=O)CS2)cc1 | 100 (≈ 221 µM) | 250 (≈ 553 µM) | – | – | – | – | 250 (≈ 553 µM) | 250 (≈ 553 µM) | 500 (≈ 1110 µM) | 500 (≈ 1110 µM) | 1000 (≈ 2210 µM) | – | – | –
CC(=O)c1ccc(N2C(=O)/C(=C\c3ccc(O)cc3)N=C2C)cc1 | – | 1000 (≈ 3120 µM) | – | – | inactive | – | – | 1000 (≈ 3120 µM) | – | 1000 (≈ 3120 µM) | 1000 (≈ 3120 µM) | inactive | inactive | –
CC(=O)c1ccc(N2C(=O)/C(=C\c3ccccc3O)N=C2C)cc1 | – | – | inactive | – | – | – | – | 1000 (≈ 3120 µM) | – | 1000 (≈ 3120 µM) | – | inactive | inactive | inactive
CC1=N/C(=C/c2cccc(C)c2)C(=O)N1c1ccc(/C(C)=N/NC(N)=S)cc1 | – | 500 (≈ 1280 µM) | – | Active | Active | Active | – | – | – | – | 1000 (≈ 2550 µM) | inactive | inactive | –
COC1=CC(=O)C[C@@H](C)[C@]12Oc1c(Cl)c(OC)cc(OC)c1C2=O [GRISEOFULVIN] | – | – | – | – | – | – | – | 100 (≈ 283 µM) | 100 (≈ 283 µM) | 500 (≈ 1420 µM) | – | – | – | –
CC1=N/C(=C\c2ccccc2C)C(=O)N1c1ccc(/C(C)=N/N=C2/NC(=O)CS2)cc1 | 25 (≈ 57.9 µM) | 25 (≈ 57.9 µM) | – | – | – | – | 250 (≈ 579 µM) | 250 (≈ 579 µM) | 100 (≈ 232 µM) | 500 (≈ 1160 µM) | 250 (≈ 579 µM) | – | – | –
CC1=N/C(=C\c2ccccc2O)C(=O)N1c1ccc(/C(C)=N/N=C2/NC(=O)CS2)cc1 | 100 (≈ 231 µM) | 250 (≈ 577 µM) | – | – | – | – | 25 (≈ 57.7 µM) | 100 (≈ 231 µM) | 50 (≈ 115 µM) | 100 (≈ 231 µM) | 100 (≈ 231 µM) | – | – | –
CC1=N/C(=C\c2ccc([N+](=O)[O-])cc2)C(=O)N1c1ccc(/C(C)=N/N=C2/NC(=O)CS2)cc1 | 250 (≈ 541 µM) | 250 (≈ 541 µM) | – | – | – | – | 100 (≈ 216 µM) | 100 (≈ 216 µM) | 250 (≈ 541 µM) | 500 (≈ 1080 µM) | 500 (≈ 1080 µM) | – | – | –
CC1=N/C(=C\c2cccc(C)c2)C(=O)N1c1ccc(/C(C)=N/N=C2/NC(=O)CS2)cc1 | 100 (≈ 232 µM) | 100 (≈ 232 µM) | – | – | – | – | 250 (≈ 579 µM) | 100 (≈ 232 µM) | 250 (≈ 579 µM) | 500 (≈ 1160 µM) | 500 (≈ 1160 µM) | – | – | –
CC1=N/C(=C\c2ccc(O)cc2)C(=O)N1c1ccc(/C(C)=N/N=C2/NC(=O)CS2)cc1 | 50 (≈ 115 µM) | 50 (≈ 115 µM) | – | – | – | – | 100 (≈ 231 µM) | 100 (≈ 231 µM) | 50 (≈ 115 µM) | 50 (≈ 115 µM) | 50 (≈ 115 µM) | – | – | –
